In PMC10605077, “In Vitro and In Silico Antiviral Activity of Di-Halogenated Compounds Derived from L-Tyrosine against Human Immunodeficiency Virus 1 (HIV-1)” (Current Issues in Molecular Biology, 2023):

Tests used:
[1] = system: HIV-1IIIB (X4); assay: Anti-HIV activity in infected TZM-bl cells (luciferase), pre- and post-infection treatment; assay type: cell-based, Human Immunodeficiency Virus Type 1 (HIV-1); details: TZM-bl cells
Procedure: (§1) TZM-bl cells were plated in a flat-bottom 96-well plate (Corning Inc., Corning, New York, NY, USA) at the concentration of 1.2 × 10^5 cells/well and incubated for 24 h at 37 °C before the addition or not of each compound at non-cytotoxic concentrations (pre-infection treatment). Then, 1 h later the treatment was removed, and the infection was performed by adding 10 ng/mL of HIV-1IIIB p24 (X4) or 2 ng/mL of HIV-1 BaL (R5). After 3 h, the virus was removed and washed, and the compound dilutions were added again (post-infection treatment). Additionally, three wells were left for the negative control (cells without treatment or infection), the positive control of infection (cells infected with the virus without treatment), and the positive control of inhibition (AZT). Antiviral activity was quantified 48 h after treatment by measuring luciferase activity, which is directly proportional to the number of infectious virus particles in the sample [23]. The luciferase activity was quantified via luminescence emitted by the cells using Bright-GloTM Luciferase Assay System (Promega Corp., Madison, WI, USA), following the manufacturer’s instructions. Briefly, 100 μL of the reagent was added to 100 μL of TZM-bl cells and incubated for at least 2 min, protected from light. Relative light units (RLUs) were measured using the multi-mode plate reader (Thermo ScientificTM VarioskanTM LUX). Each experimental condition was performed in triplicate in two independent experiments (n = 6). The percentage inhibition was calculated as follows: 100 − (RLU of treated cells − RLU of uninfected cells/RLU of infection control − RLU of uninfected cells) × 100.

[2] = system: HIV-1 BaL (R5); assay: as above; assay type: cell-based, Human Immunodeficiency Virus Type 1 (HIV-1)
Procedure: as §1

[3] = system: HIV-1 BaL; assay: Anti-HIV activity in PBMC, intracellular p24 by flow cytometry; assay type: cell-based; details: 7 days
Procedure: In the presence of various concentrations of the most bioactive compounds, 1×10^6 PBMCs previously stimulated with 8 μg/mL of PHA and 50UI/mL of IL-2 were treated for 1 h. […] After spinoculation, cells were washed twice with PBS 1x to remove free virions, and then, fresh medium supplemented with 20 UI/mL of IL-2, with or without the di-halogenated compounds derived from L-Tyrosine dilutions, was added. Cells were plated in 96-well culture plates and incubated for 7 days. […] In addition, antiviral activity was also assessed by measuring intracellular p24 in harvested cells. Briefly, cells were stained with fixable viability dye eFluor 506 (eBioscience, Leicestershire, UK), CD3 (UCHT1; Thermo Scientific, Wilmington, DE, USA), CD4 (RPA-T4; BD Biosciences, San Jose, CA, USA), and p24 PE (KC57; Beckman Coulter, Pasadena, CA, USA), as detailed in the manufacturer’s protocol. Later, cells were washed and resuspended in PBS, and the lecture was measured instead in the LS Fortessa cytometer (BD Biosciences, Franklin Lakes, NJ, USA). Data were analyzed using FlowJo version 10.5.3 (FlowJo, LLC, Ashland, OR, USA).

[4] = Viability assay of PBMC, flow cytometry with viability dye; assay type: cell-based, Human; details: human, PBMC stimulated with PHA and IL-2; all concentrations tested (18.75 μM up to 150 μM), 7 days; read-out: viability level on PBMCs
Procedure: PBMCs were thawed and let in the culture in RPMI with 10% fetal bovine serum (FBS) (Gibco, Grand Island, NY, USA) for 24 h before each experiment. Cells were stimulated for 48 h with 8 μg/mL of Phytohemagglutinin-PHA (Sigma-Aldrich, St. Louis, MO, USA) and 50 UI/mL of IL-2 (Peprotech, Rocky Hill, CT, USA). In the presence of various concentrations of di-halogenated compounds derived from L-Tyrosine, 2 × 10^5 cells per well were treated and resuspended in 200 µL of fresh medium with 20 UI/mL of IL-2 and incubated in 96-well culture plates for 7 days. After 7 days post-treatment, cell viability was determined using flow cytometry. Briefly, cells were stained with fixable viability dye eFluor 506 (eBioscience, Leicestershire, UK) as detailed in the manufacturer’s protocol for 30 min in the dark. Later, cells were washed and resuspended in PBS, and the percentage of viable cells was measured instead in the LS Fortessa cytometer (BD Biosciences, Franklin Lakes, NJ, USA). Data were analyzed using FlowJo version 10.5.3 (FlowJo, LLC, Ashland, OR, USA).

[5] = system: HIV-1 BaL; assay: Anti-HIV activity in PBMC, p24 ELISA of supernatant; assay type: cell-based; details: 150 μM, supernatant, 7 days
[6] = MTT cytotoxicity assay; assay type: cell-based; details: human; TZM-bl cells, MTT, 48 h
Procedure: The in vitro cytotoxic effect of the di-halogenated compounds on TZM-bl cells was determined with the MTT (3-(4,5-Dimethylthiazol-2-yl)-2,5-diphenyltetrazolium bromide) assay (Sigma-Aldrich, St. Louis, MO, USA). For this purpose, 1.2 × 10^5 cells/well were seeded in 96-well plates, which were incubated at 37 °C and 5% CO2 for 24 h. DMEM was used as a negative control and serial two-fold dilutions of the compounds were performed at 9.37 to 300 μM in DMEM supplemented with 5% FBS. A total of 100 μL/well of each dilution was added and incubated for 48 h. Subsequently, the cells were washed 2 times with 1X PBS, and 30 μL of MTT solution (2 mg/mL) was added and incubated for 2 h at 37 °C, in a light-protected culture. Then, 100 µL of DMSO was added to dissolve the formazan crystals, placed in shaking for 15 min, and absorbance reading was performed at 570 nm, using the Microplate Spectrophotometer (Thermo Scientific™ Multiskan™ GO, Waltham, MA, USA). Two independent experiments evaluated each experimental condition in quadruplicate (n = 8). The percentage of viability was calculated concerning the absorbance of the controls without a compound (100% viability). The 50% cytotoxic concentration was defined as the concentration of each compound that can reduce cell viability to 50% of the untreated cell control. CC50 was calculated and analyzed with GraphPad Prism version 8.0.1 (GraphPad Software, Inc., San Diego, CA, USA).

Work on COc1c(Cl)cc(C[C@@H](C(=O)O)N(C)C)cc1Cl [TODC-2M] yielded an inhibition at 18 µM ([1]; Human immunodeficiency virus 1, TZM-bl, 18 µM, read-out: Percentage inhibition of HIV-1IIIB (X4 strain) replication) of -18.5%, an inhibition at 37 µM ([1]; Human immunodeficiency virus 1, TZM-bl, 37 µM, read-out: Percentage inhibition of HIV-1IIIB (X4 strain) replication) of 40.6% and an inhibition at 75 µM ([1]; Human immunodeficiency virus 1, TZM-bl, 75 µM, read-out: Percentage inhibition of HIV-1IIIB (X4 strain) replication) of 62.8%. The inhibition at 150 µM ([1]; Human immunodeficiency virus 1, TZM-bl, 150 µM, read-out: Percentage inhibition of HIV-1IIIB (X4 strain) replication) was 99.6%, the IC50 ([1]; Human immunodeficiency virus 1, HIV-1IIIB (X4), luciferase, 48 h) was about 39.1 µM and the IC50 ([2]; Human immunodeficiency virus 1, BAL, TZM-bl, 48 h, HIV-1 BaL (R5), TZM-bl cells, luciferase) was 67.4 µM. The inhibition at 18 µM ([2]; Human immunodeficiency virus 1, BAL, 18 µM, TZM-bl cells, read-out: Percentage inhibition of HIV-1 BaL replication) was 38%, the inhibition at 37 µM ([2]; Human immunodeficiency virus 1, BAL, 37 µM, TZM-bl cells, read-out: Percentage inhibition of HIV-1 BaL replication) was 46.4% and the inhibition at 75 µM ([2]; Human immunodeficiency virus 1, BAL, 75 µM, TZM-bl cells, read-out: Percentage inhibition of HIV-1 BaL replication) was 60.5%. It also gave an inhibition at 150 µM ([2]; Human immunodeficiency virus 1, BAL, 150 µM, TZM-bl cells, read-out: Percentage inhibition of HIV-1 BaL replication) of 61.1%, an SI ([2]; selectivity index against HIV-1 BaL (CC50 and IC50 of Table 3)) of over 4.45 and an inhibition at 18.75 µM ([3]; Human immunodeficiency virus 1, BAL, PBMC, 168 h, 18.75 μM, read-out: inhibition of HIV-1 BaL replication in PBMC, flow cytometry (intracellular p24)) of 50.6%. For the same compound, the inhibition at 75 µM ([3]; Human immunodeficiency virus 1, BAL, PBMC, 168 h, 75 μM, read-out: inhibition of HIV-1 BaL replication in PBMC, flow cytometry (intracellular p24)) was 69.6%, the inhibition at 150 µM ([3]; Human immunodeficiency virus 1, BAL, PBMC, 168 h, 150 µM, read-out: inhibition of HIV-1 BaL replication in PBMC, flow cytometry (intracellular p24)) was over 60% and the “inhibition of HIV-1 BaL replication in PBMC, flow cytometry (intracellular p24)” value ([3]; all concentrations) was “over 50%”. The viability at 7 days [4] was over 90%, the “inhibition of HIV-1 BaL in PBMC, extracellular p24 ELISA” value [5] was 21.6% and the inhibition at 150 µM ([5]; Human immunodeficiency virus 1, BAL, PBMC, 168 h, read-out: inhibition of HIV-1 BaL in PBMC, extracellular p24 ELISA) was over 20%. It also gave a CC50 at 48 h [6] of over 300 µM.
